Test system: Key Grass and Sedge Weeds as well as Grass Crops
Assay: Post-emergent Test II herbicidal activity (Table 16)
Type: in vivo
Conditions: 14 d; for Visual Growth Reduction (%) 14 Days After Application, ECHCG: barnyardgrass (Echinochloa crus-galli); for Visual Growth Reduction (%) 14 Days After Application, SETFA: giant foxtail (Setaria faberi); for Visual Growth Reduction (%) 14 Days After Application, ZEAMX: maize, corn (Zea mays); for Visual Growth Reduction (%) 14 Days After Application, ORYSA: rice (Oryza sativa); for Visual Growth Reduction (%) 14 Days After Application, TRZAS: wheat, spring (Triticum aestivum); for Visual Growth Reduction (%) 14 Days After Application, CYPES: yellow nutsedge (Cyperus esculentus)
Method: Post-emergent Test II: Seeds or nutlets of the desired test plant species were planted in Sun Gro Metro-Mix® 360 planting mixture, which typically has a pH of 6.0 to 6.8 and an organic matter content of about 30 percent, in plastic pots with a surface area of 64 square centimeters. When required to ensure good germination and healthy plants, a fungicide treatment and/or other chemical or physical treatment was applied. The plants were grown for 7-21 d in a greenhouse with an approximate 15 h photoperiod which was maintained at about 23-29° C. during the day and 22-28° C. during the night. Nutrients and water were added on a regular basis and supplemental lighting was provided with overhead metal halide 1000-Watt lamps as necessary. The plants were employed for testing when they reached the first or second true leaf stage.
A weighed amount, determined by the highest rate to be tested, of each test compound was placed in a 25 mL glass vial and was dissolved in 4 mL of a 97:3 v/v mixture of acetone and DMSO to obtain concentrated stock solutions. […] The concentrated stock solutions obtained were diluted with 20 mL of an aqueous mixture containing acetone, water, isopropyl alcohol, DMSO, Atplus 411F crop oil concentrate, and Triton® X-155 surfactant in a 48.5:39:10:1.5:1.0:0.02 v/v ratio to obtain spray solutions containing the highest application rates. Additional application rates were obtained by serial dilution of 12 mL of the high rate solution into a solution containing 2 mL of 97:3 v/v mixture of acetone and DMSO and 10 mL of an aqueous mixture containing acetone, water, isopropyl alcohol, DMSO, Atplus 411F crop oil concentrate, and Triton X-155 surfactant in a 48.5:39:10:1.5:1.0:0.02 v/v ratio to obtain 1/2×, 1/4×, 1/8× and 1/16× rates of the high rate. Compound requirements are based upon a 12 mL application volume at a rate of 187 liters per hectare (L/ha). Formulated compounds were applied to the plant material with an overhead Mandel track sprayer equipped with 8002E nozzles calibrated to deliver 187 L/ha over an application area of 0.503 square meters at a spray height of 18 inches (43 cm) above the average plant canopy height. Control plants were sprayed in the same manner with the solvent blank.
The treated plants and control plants were placed in a greenhouse as described above and watered by subirrigation to prevent wash-off of the test compounds. After 14 d, the condition of the test plants as compared with that of the untreated plants was determined visually and scored on a scale of 0 to 100 percent where 0 corresponds to no injury and 100 corresponds to complete kill.

Nc1c(Cl)c(C(=O)O)nc(-c2ccc3cc[nH]c3c2)c1Cl [Compound 106]
Visual Growth Reduction (%) 14 Days After Application, ECHCG (35 g ai/ha): G (0-29)
Visual Growth Reduction (%) 14 Days After Application, ECHCG (70 g ai/ha): D (60-74)
Visual Growth Reduction (%) 14 Days After Application, ECHCG (140 g ai/ha): C (75-84)
Visual Growth Reduction (%) 14 Days After Application, SETFA (35 g ai/ha): G (0-29)
Visual Growth Reduction (%) 14 Days After Application, SETFA (70 g ai/ha): G (0-29)
Visual Growth Reduction (%) 14 Days After Application, SETFA (140 g ai/ha): G (0-29)
Visual Growth Reduction (%) 14 Days After Application, ZEAMX (35 g ai/ha): G (0-29)
Visual Growth Reduction (%) 14 Days After Application, ZEAMX (70 g ai/ha): G (0-29)
Visual Growth Reduction (%) 14 Days After Application, ZEAMX (140 g ai/ha): G (0-29)
Visual Growth Reduction (%) 14 Days After Application, ORYSA (35 g ai/ha): G (0-29)
Visual Growth Reduction (%) 14 Days After Application, ORYSA (70 g ai/ha): G (0-29)
Visual Growth Reduction (%) 14 Days After Application, ORYSA (140 g ai/ha): G (0-29)
Visual Growth Reduction (%) 14 Days After Application, TRZAS (35 g ai/ha): G (0-29)
Visual Growth Reduction (%) 14 Days After Application, TRZAS (70 g ai/ha): G (0-29)
Visual Growth Reduction (%) 14 Days After Application, TRZAS (140 g ai/ha): G (0-29)
Visual Growth Reduction (%) 14 Days After Application, CYPES (35 g ai/ha): G (0-29)
Visual Growth Reduction (%) 14 Days After Application, CYPES (70 g ai/ha): G (0-29)
Visual Growth Reduction (%) 14 Days After Application, CYPES (140 g ai/ha): G (0-29)
